Experimental data from the supplement of paper PMC10307832.

Key:
Assay in all cases: relative viability (nuclei count vs DMSO), 5 days (fraction); higher = more cells survive
[1] = compound: Cn1nnc2c(C(N)=O)ncn2c1=O [Temozolomide] + O=C(c1cc(Cc2n[nH]c(=O)c3ccccc23)ccc1F)N1CCN(C(=O)C2CC2)CC1 [Olaparib] (partner 8 µM)
Outline: (§1)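 Lung cancer cell lines were pin-tool dosed in 1536-well plates on the day after seeding, with either a lone drug or a fixed anchor-drug dose plus five library-drug doses (not always all listed) in √10 steps. Nuclei were counted on 4× images after 5 days. Relative viability is the ratio of treated-well to vehicle-well nuclei counts, with each value a median of duplicate plates.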

[2] = compound: Cn1nnc2c(C(N)=O)ncn2c1=O [Temozolomide] + Cc1cc(Nc2cc(N3CCN(C)CC3)nc(Sc3ccc(NC(=O)C4CC4)cc3)n2)n[nH]1 [Tozasertib] (partner 0.1 µM)
Outline: as §1

[3] = compound: C[C@@H](C(=O)N[C@@H](C1CCCCC1)C(=O)N2CCC[C@H]2C(=O)N[C@@H]3[C@@H](CC4=CC=CC=C34)OCC#CC#CCO[C@@H]5CC6=CC=CC=C6[C@@H]5NC(=O)[C@@H]7CCCN7C(=O)[C@H](C8CCCCC8)NC(=O)[C@H](C)NC)NC [AZD5582] + CS(=O)(=O)N1CCN(Cc2cc3nc(-c4cccc5[nH]ncc45)nc(N4CCOCC4)c3s2)CC1 [Pictilisib] (partner 1 µM)
Outline: as §1

[4] = compound: C[C@@H](C(=O)N[C@@H](C1CCCCC1)C(=O)N2CCC[C@H]2C(=O)N[C@@H]3[C@@H](CC4=CC=CC=C34)OCC#CC#CCO[C@@H]5CC6=CC=CC=C6[C@@H]5NC(=O)[C@@H]7CCCN7C(=O)[C@H](C8CCCCC8)NC(=O)[C@H](C)NC)NC [AZD5582] + COc1cc2c(Oc3ccc(NC(=O)C4(C(=O)Nc5ccc(F)cc5)CC4)cc3F)ccnc2cc1OCCCN1CCOCC1 [Foretinib] (partner 0.25 µM)
Outline: as §1

Cell Line	relative viability ([1]; first compound 0.2 µM)	relative viability ([1]; first compound 0.6325 µM)	relative viability ([1]; first compound 2 µM)	relative viability ([1]; first compound 6.325 µM)	relative viability ([1]; first compound 20 µM)	relative viability ([2]; first compound 0.2 µM)	relative viability ([2]; first compound 0.6325 µM)	relative viability ([2]; first compound 2 µM)	relative viability ([2]; first compound 6.325 µM)	relative viability ([2]; first compound 20 µM)	relative viability ([3]; first compound 0.001581 µM)	relative viability ([3]; first compound 0.005 µM)	relative viability ([3]; first compound 0.01581 µM)	relative viability ([3]; first compound 0.05 µM)	relative viability ([4]; first compound 0.001581 µM)	relative viability ([4]; first compound 0.005 µM)	relative viability ([4]; first compound 0.01581 µM)	relative viability ([4]; first compound 0.05 µM)
201T	0.843	0.891	0.884	0.809	0.742	1.01	0.888	0.987	0.943	0.914	0.697	0.733	0.703	0.808	1.09	1.43	1.12	1.45
NCI-H596	0.685	0.694	0.764	0.677	0.657	0.978	1.04	0.89	0.769	1.01	0.31	0.348	0.413	0.191			1.19	0.279
EKVX		0.735	0.79	0.79	0.479	0.256	0.395	0.385	0.335	0.42	0.399	0.568	0.362	0.513	0.691	0.932	0.553	0.612
LOU-NH91	0.8	0.936	0.913	0.863	0.547	0.548	0.728	0.687	0.641	0.482	0.557	0.521	0.534	0.539	0.858	0.861	0.934	0.949
NCI-H1355	0.743	0.753	0.723	0.646	0.617	0.583	0.612	0.66	0.548	0.553	0.372	0.379	0.289	0.361	0.894	0.881	0.938	0.705
SK-LU-1	0.428	0.446	0.416	0.292	0.203	0.354	0.326	0.335	0.273	0.235	0.422	0.357	0.494	0.325	0.794	0.772	0.843	0.472
LK-2	0.736	0.702	0.593	0.355	0.257	0.153	0.155	0.154	0.169	0.151	0.474	0.575	0.581	0.603	0.88	1.12	1.49	1.25
NCI-H522	0.64	0.543	0.762	0.574	0.469	0.449	0.586	0.56	0.538	0.595								
IA-LM	0.908	0.744	0.86	0.759	0.694							0.355	0.347	0.314	0.96	0.938	1.21	0.994
NCI-H1299	1	0.99	0.957	0.923	0.967						0.702	0.879	0.822	0.805	1.05	1.11	1.04	1.03
NCI-H1623							0.421	0.365	0.475	0.293					0.831	0.971	0.917	0.888
NCI-H1563											0.644	0.642	0.62	0.729	0.897	0.958	0.894	0.924
NCI-H1792	0.31	0.388	0.251	0.361	0.31						0.278	0.345	0.28	0.35				
NCI-H1648		1.09	0.654	0.826	0.468		0.525	0.397	0.448	0.435								
Calu-6	0.787	0.603	0.6	0.484	0.259						0.779		0.939	0.698	0.695	0.523	0.826	0.437
NCI-H2342	0.344	0.411	0.454	0.386	0.36	0.49	0.57	0.492	0.598	0.346					1.04	1.11	1.07	1.27
EBC-1	0.765	0.663	0.795	0.666	0.5						0.256	0.328	0.346	0.344	0.098	0.101	0.11	0.107
A549	0.358	0.344	0.345	0.17	0.117						0.474	0.477	0.585	0.505	0.821	1.13	0.938	1.14
SW 900	1.02	1.05	0.871	0.946	0.776	0.63	0.703	0.498	0.542	0.462					0.866	0.666	0.895	0.451
